Where two headings read alike, the source gives them in different places.
What was measured:
[1] = In vitro plasma protein binding (ultrafiltration), rat; format: in vitro ADME; settings: 100 and 1000 ng/mL
Method: (§1) Stock solutions were spiked into plasma to achieve the intended concentrations. After incubation for 1 hour at 37°C under constant gentle agitation, the spiked plasma samples (n = 3) were centrifuged (2000 g, 10 min, 37°C) in pre‐warmed Centrifree devices. Total radioactivity was determined in the ultrafiltrate (Cu, concentration of unbound compound) and in the sample introduced into the reservoir before ultrafiltration (Cp). The unbound (fu) and the bound (fb) fraction in plasma were calculated as follows: fu (%) = Cu/Cp × 100; fb (%) = 100‐Fu (%).

[2] = Human ADME study: total radioactivity PK in blood and plasma (AMS); format: in vivo; settings: single oral 600 mg [14C] ribociclib, N=6
Method: Subjects continued to fast for 4 hours after drug administration. […] Urine was collected from 0‐6, 6‐12, and 12‐24 h post dose, then over 24‐hour intervals until 504 hours post dose. Feces was collected over 24‐h intervals until 504 hours post dose, during which time the volunteers were confined to the clinic. Vomitus was also scheduled to be collected for 12 hours post dosing. However, no volunteers vomited during the study. […] Electrostatics Corporation 1.5SDH Compact AMS System (Middleton) in the bioanalytical laboratory of Accium BioSciences, Seattle, WA, USA. A known aliquot of each blood and plasma specimen was transferred to a prebaked quartz tube. […] An AMS batch consisted of unknown specimens and chemical blank(s) to monitor for any in‐process contamination. The samples were then dried using vacuum centrifugation and submitted to graphitization. Graphitization consisted of combustion of samples followed by reduction to graphite according to published methods. ^12 Briefly, approximately 200‐mg copper oxide was added to each combustion tube containing the dried sample residue. The combustion tubes were flame‐sealed under vacuum and combusted at approximately 900°C to form carbon dioxide (CO2). Combusted samples were then attached to a disposable transfer system connected to a septa‐sealed vial. […]

plasma protein = assay: In vitro plasma protein binding (ultrafiltration), human; format: in vitro ADME; settings: rat, dog
Method: as §1

[3] = as above; format: in vitro ADME; settings: plasma, 10-10 000 ng/mL
Method: as §1

[4] = Human ADME study: quantitative metabolite profiling in plasma; format: in vivo; settings: human plasma pools n=6, from metabolite patterns
Method: A plasma pool across the six healthy volunteers included in the study was prepared at the time points of 1 hour, 3 hours, 24 hours, and 48 hours post dose. For each time point, an equal volume of plasma was taken from each subject and combined. Plasma pool samples were processed by protein precipitation with acetonitrile. The protein pellet that resulted from precipitation with acetonitrile was washed further with additional aliquots of acetonitrile. All acetonitrile washes were combined and evaporated under nitrogen. For the 3‐ and 24‐hour plasma pools, the extraction procedure was slightly modified, including precipitation of the plasma proteins by addition of a 1:1 mixture of acetonitrile:methanol, followed by washing of the protein pellet with the same solvent mixture. All extracts were reconstituted with a solution of 15‐mM ammonium formate and acetonitrile (95:5 v/v). Extraction and reconstitution recoveries were measured in all four plasma samples in order to calculate and overall recovery. Quantitative metabolite profiling in plasma was accomplished using a Shimadzu Prominence high‐performance liquid chromatography (HPLC) system (Shimadzu, Columbia, MD, USA), coupled with fraction collection and analysis of total radioactivity in individual fractions using AMS (as described above). A second injection of each sample, conducted immediately after the first, was used to provide HPLC fractions for metabolite identification. The fractions identified as containing radioactivity from the AMS analysis were analyzed by HPLC coupled with high‐resolution mass spectrometry to identify the metabolites. The HPLC‐MS/MS methodology used is described below.

[5] = Integrated estimation of ribociclib elimination pathways in humans; design: species or system human
[6] = Rat pharmacokinetic studies: plasma PK of ribociclib after single i.v. or oral dose; format: in vivo; settings: for Vd: read-out: Vss; for half-life: read-out: t½ (converted)
Method: ADME studies (including QWBA in pigmented and non‐pigmented rats) using radiolabeled ribociclib were conducted in rat and dog. Relevant institutional and national guides for the care and use of laboratory animals were followed. […]

[7] = human estimate based on rat ADME data
[8] = female, Hanover Wistar, iv, rat f (3), i.v., 4.2 mg base/kg
[9] = female, rat f (3), po, 11.1 mg base/kg
[10] = female, rat f (4), po, 51.2 mg base/kg
[11] = male, Hanover Wistar, rat m (3), po, 9.8 mg base/kg
[12] = male, Sprague Dawley, 5 mg/kg, rat m (3), po, 5.0 mg base/kg
[13] = male, Sprague Dawley, iv, 2 mg/kg, rat m (2), i.v., 2.0 mg base/kg

SMILES: CN(C)C(=O)c1cc2cnc(Nc3ccc(N4CCNCC4)cn3)nc2n1C1CCCC1 [ribociclib, Ribociclib]
- fraction unbound at 1 h [1]: 0.2 ± 0.01
- tlast of total radioactivity, median ([2]; human blood): 504 h
- tlast of total radioactivity, median ([2]; human plasma): 504 h
- difference in unbound fraction in plasma between species (plasma protein): up to 1.7 fold
- fraction unbound at 1 h [3]: 0.3 ± 0.02
- AUC0-48h, % of total [14C]-AUC0-48 [4]: approximately 43.5%
- AUC0-48h, % of total [14C]-AUC0-48 ([4]; listed as Ribociclib): 43.5%
- biliary elimination, share of total [5, 7]: 1%
- elimination by intestinal excretion/secretion, share of total [5, 7]: 8%
- elimination by hepatic metabolism, share of total ([5]; human, integrated estimate): approx. 84%
- elimination by renal excretion, share of total ([5]; human, integrated estimate): 7%
- Vd [6, 8]: 12.2 L/kg
- half-life [6, 8]: 1.9 h
- AUC(0-t) ([6]; female, Hanover Wistar, rat, iv, 4.2 mg base/kg): 508 ng·h/mL
- clearance ([6]; female, iv, rat f (3), 4.2 mg base/kg): 130 mL/min/kg
- Cmax [6, 9]: 59.1 ng/mL
- Tmax [6, 9]: 2 h
- AUC(0-t) ([6]; female, rat f (3), po, 11.1 mg base/kg, AUC interval 24 h): 360 ng·h/mL
- Cmax [6, 10]: 1090 ng/mL
- Tmax [6, 10]: 0.3 h
- half-life [6, 10]: 2 h
- AUC(0-t) ([6]; female, rat, po, 51.2 mg base/kg): 3100 ng·h/mL
- clearance ([6]; male, Hanover Wistar, iv, rat m (3), 4.1 mg base/kg): 46.7 mL/min/kg
- half-life ([6]; male, Hanover Wistar, iv, rat m (3), i.v., 4.1 mg base/kg): 3.2 h
- Cmax [6, 11]: 130 ng/mL
- Tmax [6, 11]: 4 h
- AUC(0-t) ([6]; male, Hanover Wistar, rat m (3), po, 9.8 mg base/kg, AUC interval 24 h): 1340 ng·h/mL
- AUC(0-t) ([6]; male, Hanover Wistar, rat, iv, 4.1 mg base/kg): 1440 ng·h/mL
- Cmax [6, 12]: 126 ng/mL
- Tmax [6, 12]: 2 h
- bioavailability [6, 12]: 55%
- Vd [6, 13]: 9.9 L/kg
- half-life [6, 13]: 2.8 h
- AUC(0-t) ([6]; male, Sprague Dawley, rat, iv, 2 mg/kg): 587 ng·h/mL
- AUC(0-t) ([6]; male, Sprague Dawley, rat, po, 5 mg/kg): 672 ng·h/mL
- clearance ([6]; male, iv, rat m (2), 2.0 mg base/kg): 51.7 mL/min/kg
- Vd ([6]; male, iv, rat m (3), i.v., 4.1 mg base/kg): 7.9 L/kg
- bioavailability ([6]; male, rat m (3), po, 9.8 mg base/kg): 37%

Source: PMC7287031 (Pharmacology Research & Perspectives, 2020)
